Experimental findings from ChEMBL document CHEMBL1128188, “Neurosteroid analogues. 3. The synthesis and electrophysiological evaluation of benz[e]indene congeners of neuroactive steroids having the 5 beta-configuration” (1995) are described below.

The structures appear in SMILES notation. The source made the active and inactive calls. No cut-off for these calls is given here.

Holding throughout (format): functional
For experiment [1], the species on record is Rattus norvegicus. Briefly: The compound gated current reflects the peak current directly gated by 10 uM compound in the absence of GABA compared to the response obtained from the same cell in response to 1 uM GABA alone; No response.
The species named for experiment [2] is Rattus norvegicus. Nature of the experiment: The Magnitude of the peak current produced by 1 uM GABA plus 1 uM compound was normalized with respect to the peak current produced by 1 uM GABA alone on the same cell.
The species entered for experiment [3] is Rattus norvegicus. Briefly: The compound gated current reflects the peak current directly gated by 10 uM compound in the absence of GABA compared to the response obtained from the same cell in response to 1 uM GABA alone.
For experiment [4], the species on record is Rattus norvegicus. Briefly: The Magnitude of the peak current produced by 1 uM GABA plus 1 uM compound was normalized with respect to the peak current produced by 1 uM GABA alone on the same cell. Values are mean+/-SEM.

Take `C[C@]12CCC3C[C@@H](CCO)CCC3C1CC[C@@H]2O` (stereo partly specified): the Effect result in experiment [1] was “inactive”. Besides, the Response in experiment [2] was determined as 93%.

For the molecule `CC(C)(C)O[C@H]1CCC2C3CC[C@H](CCO)CC3CC[C@@]21C` (stereo partly specified), the Effect entry in experiment [1] is “inactive”. Moreover, in experiment [2], the Response is listed as 114%.

In experiment [3], `CC(=O)C1CCC2C3CC[C@H](CCO)CC3CC[C@]12C` (stereo partly specified) yielded an Effect of 43. Moreover, the Response in experiment [2] is on record as 213%.

For `C[C@]12CCC3C[C@H](CCO)CCC3C1CC[C@@H]2C#N` (stereo partly specified), the Effect result in experiment [1] was “inactive”. The Response in experiment [2] is 346%.

The molecule `C[C@]12CCC3C[C@@H](CCO)CCC3C1CC[C@@H]2C#N` (stereo partly specified) returned an Effect in experiment [3] of 115. Further, the Response in experiment [2] is 497%.

For the molecule `C[C@]12CCC3C[C@@H](CCO)CCC3C1CCC2C#N` (stereo partly specified), the Effect entry in experiment [1] is “inactive”. The Response in experiment [2] turned out to be 104%.

Turning to `C[C@]12CC[C@@H]3C4CC[C@@H](O)C[C@H]4CC[C@H]3[C@@H]1CC[C@H]2C#N` (stereo partly specified), in experiment [3], the Effect is 49. For the same molecule, the Response in experiment [2] came out at 443%.

In the case of `CC(=O)[C@H]1CCC2C3CC[C@@H](CCO)CC3CC[C@@]21C` (stereo partly specified), the Effect result in experiment [1] is “inactive”. Also, the Response in experiment [4] was found to be 489%.

Regarding `C[C@]12CCC3C[C@@H](CCO)CCC3C1CCC2=O` (stereo partly specified), the Effect entry in experiment [1] is “inactive”. Moreover, the Response in experiment [2] is listed as 197%.

Regarding `CC(=O)[C@@H]1CC[C@H]2[C@@H]3CC[C@@H]4C[C@H](O)CCC4[C@H]3CC[C@]12C` (stereo partly specified), the Effect in experiment [3] was found to be 30. Besides, the Response in experiment [2] is 523%.

In experiment [3], `CC(=O)[C@H]1CCC2C3CC[C@H](CCO)CC3CC[C@@]21C` (stereo partly specified) had an Effect of 113. Also, the Response in experiment [2] came out at 312%.

The molecule `C[C@]12CC[C@@H]3C4CC[C@@H](O)C[C@@H]4CC[C@H]3[C@@H]1CC[C@H]2C#N` (stereo partly specified) showed an Effect in experiment [3] of 166. The Response in experiment [2] was 514%.

As for `CC(=O)[C@@H]1CC[C@H]2[C@@H]3CC[C@H]4C[C@H](O)CCC4[C@H]3CC[C@]12C` (stereo partly specified), in experiment [3], the Effect was 144. For the same molecule, the Response in experiment [2] is 521%.
